Our source for the IC50 and PHD2/PHD1 values is patent publication US9409892B2, “4-hydroxy-isoquinoline compounds as HIF hydroxylase inhibitors” (FIBROGEN, INC., priority 2012, dated 2016).

The IC50 is the concentration that gives 50% inhibition.

One test concerns the target PHD2 (EGLN1) (Homo sapiens (Human), UniProt Q9GZT9). Description: HIF-PH assay (14CO2 capture), PHD2 enzyme inhibition. In kind it is biochemical. As to conditions: Table 1; individual measurement; read-out: IC50 (μM) PHD2.
A further test has as its target PHD1 (EGLN2) (Homo sapiens (Human), UniProt Q96KS0). Description: HIF-PH assay (14CO2 capture), PHD1 enzyme inhibition. In kind it is biochemical. The settings on record: Table 1; for IC50: individual measurement, read-out: IC50 (μM) PHD1; for PHD2/PHD1: ratio of the IC50 of the compound for each enzyme.

Each structure is given as a SMILES string.

PHD1 (EGLN2), sequence (Q96KS0 whole entry): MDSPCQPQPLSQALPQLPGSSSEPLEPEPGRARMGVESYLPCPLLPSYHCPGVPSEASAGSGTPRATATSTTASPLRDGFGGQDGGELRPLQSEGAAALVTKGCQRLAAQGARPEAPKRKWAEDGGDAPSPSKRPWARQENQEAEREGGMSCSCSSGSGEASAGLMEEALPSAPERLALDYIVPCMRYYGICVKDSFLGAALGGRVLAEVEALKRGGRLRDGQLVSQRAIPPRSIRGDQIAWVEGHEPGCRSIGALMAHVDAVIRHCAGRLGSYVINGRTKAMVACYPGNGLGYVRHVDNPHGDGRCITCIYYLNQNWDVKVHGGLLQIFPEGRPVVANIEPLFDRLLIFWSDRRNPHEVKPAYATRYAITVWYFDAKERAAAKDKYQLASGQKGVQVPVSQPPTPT
PHD2 (EGLN1), sequence (Q9GZT9 whole entry): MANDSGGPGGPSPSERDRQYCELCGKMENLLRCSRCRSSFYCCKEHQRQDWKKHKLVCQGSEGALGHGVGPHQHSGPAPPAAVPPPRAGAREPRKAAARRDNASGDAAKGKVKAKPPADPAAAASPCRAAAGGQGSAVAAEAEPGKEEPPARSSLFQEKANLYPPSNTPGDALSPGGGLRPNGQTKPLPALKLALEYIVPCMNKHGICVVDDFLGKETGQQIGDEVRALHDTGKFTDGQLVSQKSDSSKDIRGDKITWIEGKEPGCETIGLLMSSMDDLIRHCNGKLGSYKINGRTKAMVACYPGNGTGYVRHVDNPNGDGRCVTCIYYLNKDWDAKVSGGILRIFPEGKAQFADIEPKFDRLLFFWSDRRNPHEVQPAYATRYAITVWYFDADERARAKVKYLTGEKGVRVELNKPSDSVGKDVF

As to `O=C(O)CCCNC(=O)c1ncc2cc(-c3ccc(F)cc3)ccc2c1O` [Compound 148, 4-{[7-(4-Fluoro-phenyl)-4-hydroxy-isoquinoline-3-carbonyl]-amino}-butyric acid], the IC50 at PHD2 (EGLN1) came to 24.5 µM. Also, at PHD1 (EGLN2), the IC50 was 2.88 µM and the PHD2/PHD1 was determined as 9.
With `O=C(O)CCCCNC(=O)c1ncc2cc(-c3ccc(F)cc3)ccc2c1O` [Compound 149, 5-{[7-(4-Fluoro-phenyl)-4-hydroxy-isoquinoline-3-carbonyl]-amino}-pentanoic acid], the IC50 on PHD2 (EGLN1) was determined as 87 µM. Also, on PHD1 (EGLN2), the IC50 was determined as 18.5 µM and the PHD2/PHD1 turned out to be 5.
On the same counts, the results for `CC(C)(CNC(=O)c1ncc2cc(-c3ccc(F)cc3)ccc2c1O)C(=O)O` [Compound 150, 3-{[7-(4-Fluoro-phenyl)-4-hydroxy-isoquinoline-3-carbonyl]-amino}-2,2-dimethyl-propionic acid] are 114 µM, 22.9 µM and 5.
Regarding `Cn1nc(C(F)(F)F)cc1-c1nc(C(=O)NCC(C)(C)C(=O)O)c(O)c2ccc(Oc3ccccc3)cc12` [Compound 151, 3-{[4-Hydroxy-1-(2-methyl-5-trilluoromethyl-2H-pyrazol-3-yl)-7-phenoxy-isoquinoline-3-carbonyl]-amino}-2,2-dimethyl-propionic acid], the IC50 on PHD2 (EGLN1) was found to be 111 µM. Also, at PHD1 (EGLN2), the IC50 is 12.8 µM and the PHD2/PHD1 came to 9.
On the same counts, the results for `CC(C)(CC(=O)O)NC(=O)c1nc(C#N)c2cc(OCc3ccccc3)ccc2c1O` [Compound 152, 3-[(7-Benzyloxy-1-cyano-4-hydroxy-isoquinoline-3-carbonyl)-amino]-3-methyl-butyric acid] are 55.1 µM, 4.35 µM and 13.
On the same counts, the results for `CC(C)(CNC(=O)c1nc(C#N)c2cc(OCc3ccccc3)ccc2c1O)C(=O)O` [Compound 153, 3-[(7-Benzyloxy-1-cyano-4-hydroxy-isoquinoline-3-carbonyl)-amino]-2,2-dimethyl-propionic acid] are 30.5 µM, 2.58 µM and 12.
On the same counts, the results for `N#Cc1nc(C(=O)NCC2(C(=O)O)CCC2)c(O)c2ccc(Sc3ccccc3)cc12` [Compound 154, 1-{[(1-Cyano-4-hydroxy-7-phenylsulfanyl-isoquinoline-3-carbonyl)-amino]-methyl}-cyclobutanecarboxylic acid] are 1.9 µM, 0.11 µM and 18.
As to `Cc1ccccc1Oc1ccc2c(C#N)nc(C(=O)NCC(C)(C)C(=O)O)c(O)c2c1` [Compound 155, 3-[(1-Cyano-4-hydroxy-6-o-tolyloxy-isoquinoline-3-carbonyl)-amino]-2,2-dimethyl-propionic acid], the IC50 at PHD2 (EGLN1) came to 42.1 µM; on PHD1 (EGLN2) it was 5.25 µM. Also, on PHD1 (EGLN2), the PHD2/PHD1 stood at 8.
On the same counts, the results for `CC(C)(CNC(=O)c1nc(C#N)c2cc(OC3CCCCC3)ccc2c1O)C(=O)O` [Compound 156, 3-[(1-Cyano-7-cyclohexyloxy-4-hydroxy-isoquinoline-3-carbonyl)-amino]-2,2-dimethyl-propionic acid] are 23.5 µM, 1.49 µM and 16.
In the case of `CC(C)(CNC(=O)c1c(O)c2ccc(Oc3ccccc3)cc2c(C#N)[n+]1[O-])C(=O)O` [Compound 157, 3-(2-Carboxy-2-methylpropylcarbamoyl)-1-cyano-4-hydroxy-7-phenoxyisoquinoline 2-oxide], on PHD2 (EGLN1), the IC50 worked out at 200 µM. Besides, on PHD1 (EGLN2), the concentration for half-maximal inhibition (IC50) was 13.6 µM and the PHD2/PHD1 is recorded as 15.
On the same counts, the results for `N#Cc1c2cc(Oc3ccccc3)ccc2c(O)c(C(=O)NCCCC(=O)O)[n+]1[O-]` [Compound 158, 3-(3-Carboxypropylcarbamoyl)-1-cyano-4-hydroxy-7-phenoxyisoquinoline 2-oxide] are 21 µM, 1.66 µM and 13.
On the same counts, the results for `N#Cc1nc(C(=O)NCC2(C(=O)O)CCC2)c(O)c2ccc(OC3CCCCC3)cc12` [Compound 159, 1-{[(1-Cyano-7-cyclohexyloxy-4-hydroxy-isoquinoline-3-carbonyl)-amino]-methyl}-cyclobutanecarboxylic acid] are 7.9 µM, 0.91 µM and 9.
For the molecule `CC(C)(CNC(=O)c1nc(C#N)c2cc(S(=O)(=O)C3CCCCC3)ccc2c1O)C(=O)O` [Compound 160, 3-[(1-Cyano-7-cyclohexanesulfonyl-4-hydroxy-isoquinoline-3-carbonyl)-amino]-2,2-dimethyl-propionic acid], the IC50 on PHD2 (EGLN1) was 200 µM. Also, at PHD1 (EGLN2), the IC50 came out at 17.4 µM and the PHD2/PHD1 is given as 12.
In the case of `N#Cc1nc(C(=O)NCC2(C(=O)O)CCC2)c(O)c2ccc(S(=O)(=O)C3CCCCC3)cc12` [Compound 161, 1-{[(1-Cyano-7-cyclohexanesulfonyl-4-hydroxy-isoquinoline-3-carbonyl)-amino]-methyl}-cyclobutanecarboxylic acid], the IC50 on PHD2 (EGLN1) worked out at 200 µM. Moreover, on PHD1 (EGLN2), the IC50 was found to be 19.8 µM and the PHD2/PHD1 is recorded as 10.
On the same counts, the results for `CC(C)(CNC(=O)c1nc(C#N)c2cc(NC(=O)NCc3ccccc3)ccc2c1O)C(=O)O` [Compound 162, 3-{[7-(3-Benzyl-ureido)-1-cyano-4-hydroxy-isoquinoline-3-carbonyl]-amino}-2,2-dimethyl-propionic acid] are 24.1 µM, 2.35 µM and 10.
`N#Cc1nc(C(=O)NCCC[C@H](N)C(=O)O)c(O)c2ccc(Oc3ccccc3)cc12.O=C(O)C(F)(F)F` [Compound 163, (S)-2-[Amino-5-(1-cyano-4-hydroxy-7-phenoxy-isoquinoline-3-carbonyl)-amino]-pentanoic acid 2,2,2-trifluoroacetic acid (1:1)]: on PHD2 (EGLN1), the IC50 is greater than 200 µM. Besides, at PHD1 (EGLN2), the IC50 was determined as 43.6 µM and the PHD2/PHD1 came out at 5.
On to `CC(C)(CNC(=O)c1nc(C#N)c2cc(Cc3ccccc3)ccc2c1O)C(=O)O` [Compound 164, 3-[(7-Benzyl-1-cyano-4-hydroxy-isoquinoline-3-carbonyl)-amino]-2,2-dimethyl-propionic acid], for which, at PHD2 (EGLN1), the IC50 came to 18.6 µM. Moreover, on PHD1 (EGLN2), the IC50 came out at 1.35 µM and the PHD2/PHD1 worked out at 14.
On the same counts, the results for `N#Cc1nc(C(=O)NC(CC(=O)O)c2cccc(Cl)c2)c(O)c2ccc(Oc3ccccc3)cc12` (stereo not drawn) [Compound 165, 3-(3-Chloro-phenyl)-3-[(1-cyano-4-hydroxy-7-phenoxy-isoquinoline-3-carbonyl)-amino]-propionic acid] are 28.1 µM, 1.51 µM and 19.
On the same counts, the results for `N#Cc1nc(C(=O)NCC(C(=O)O)C2CC2)c(O)c2ccc(Oc3ccccc3)cc12` (stereo not drawn) [Compound 166, 3-[(1-Cyano-4-hydroxy-7-phenoxy-isoquinoline-3-carbonyl)-amino]-2-cyclopropyl-propionic acid] are 12.2 µM, 0.42 µM and 29.
On the same counts, the results for `O=C(NCC(C(=O)O)C1CC1)c1ncc2cc(Oc3ccccc3)ccc2c1O` (stereo not drawn) [Compound 167, 2-Cyclopropyl-3-[(4-hydroxy-7-phenoxy-isoquinoline-3-carbonyl)-amino]-propionic acid] are 100 µM, 9.57 µM and 10.
